Data from patent US20240016834A1, “ANTIMICROBIAL AGENT COMPOSITION AND MANUFACTURING METHOD AND PRODUCT THEREOF” (priority 2020, published 2024).

Tests used:
[1] = system: Escherichia coli (E. coli) ATCC 8739; assay: In vitro antibacterial power test (KFDA guidelines for external disinfectants), 5 minutes contact; assay type: cell-based; conditions: inoculum 1.3 × 10^3 CFU/mL
Source text: (§1) The <Table 1> below is based on the official test report of a test that was requested to and performed by the Korea Analytical Testing Research Institute as a test institution. […] In this case, an inhibition rate (%) of the test result is as follows: Inhibition Rate (%)=(Number of Bacteria in Control Group−Number of Bacteria in Sample Group)/Number of Bacteria in Control Group.

[2] = system: Salmonella Typhimurium ATCC 14028; assay: as above; assay type: cell-based; conditions: inoculum 1.1 × 10^3 CFU/mL
Source text: as §1

[3] = system: Staphylococcus aureus ATCC 6538; assay: as above; assay type: cell-based; conditions: inoculum 1.0 × 10^3 CFU/mL
Source text: as §1

[4] = system: Infectious bronchitis (corona virus); assay: Administration test to broiler chicken 2 (farm); assay type: in vivo, broiler chicken (Ross); conditions: antibiotic administered before the Impact treatment
Procedure: In the second test, referring to <Table 3> in the below, infectious bronchitis (corona virus) occurred among 24,000 of Ross breeds at the age of 20 days at the broiler chicken consignment farm mentioned above. […] For the test, the product of the present invention was fed at the recommended dosage and was administered in the same way for 3 days.

## CC1(C)S[C@@H]2[C@H](NC(=O)[C@H](N)c3ccccc3)C(=O)N2[C@H]1C(=O)O [Ampicillin 100, ampicillin]
[1]
  Inhibition rate (%) of number of viable cells after 5 minutes [Antibacterial power]: (99.9%)
[2]
  Inhibition rate (%) of number of viable cells after 5 minutes [Antibacterial power]: (98.6%)
[2]; control group 1.6 × 10^3
  number of viable cells after 5 minutes: 2.1 × 10^1 CFU/mL
[3]
  Inhibition rate (%) of number of viable cells after 5 minutes [Antibacterial power]: (94.6%)
[3]; control group 1.5 × 10^3
  number of viable cells after 5 minutes: 8.1 × 10^1 CFU/mL
[4]
  respiratory symptoms: symptoms persisted.
